From PubChem BioAssay AID246 (DTP/NCI, 2004)
Several values for one entry are separate records, joined by “and”; a condition that tells them apart may be missing. Equal values may be shown once. Toxic doses and inconclusive results are not listed. How the source made its calls: active means survival T/C of 150% or more; inactive means T/C below 125% in these data.

Test system: BDF1 mice, P1081 chloroleukemia ip, survival T/C
Test: NCI In Vivo Anticancer Drug Screen. Data for tumor model P1081 Chloroleukemia (intraperitoneal) in B6D2F1 (BDF1) mice
Conditions: endpoint: mean survival time, higher = longer survival
Protocol: The antitumor activity of compounds was measured in mice bearing transplantable tumors. Survival or tumor size were measured and the results are expressed as the measurement made in the treated group (T) divided by the measurement made in the vehicle treated control group (C). The tumor model used in this assay is P1081 Chloroleukemia (intraperitoneal) in B6D2F1 (BDF1) mice

[1] = dose: 25.0 mg/kg/injection, schedule: Q01DX010 (ip), vehicle: saline
[2] = dose: 5.0 mg/kg/injection, schedule: Q01DX010 (ip), vehicle: saline
[3] = dose: 6.25 mg/kg/injection, schedule: Q01DX Z (ip), vehicle: carboxymethylcellulose (CMC)
[4] = dose: 10.0 mg/kg/injection, schedule: Q01DX010 (ip), vehicle: saline
[5] = dose: 12.5 mg/kg/injection, schedule: Q01DX Z (ip), vehicle: carboxymethylcellulose (CMC)
[6] = dose: 20.0 mg/kg/injection, schedule: Q01DX010 (ip), vehicle: saline
[7] = dose: 40.0 mg/kg/injection, schedule: Q01DX010 (ip), vehicle: saline
[8] = dose: 50.0 mg/kg/injection, schedule: Q01DX Z (ip), vehicle: carboxymethylcellulose (CMC)
[9] = dose: 2.5 mg/kg/injection, schedule: Q01DX Z (ip), vehicle: carboxymethylcellulose (CMC)
[10] = dose: 5.0 mg/kg/injection, schedule: Q01DX Z (ip), vehicle: carboxymethylcellulose (CMC)
[11] = dose: 62.5 mg/kg/injection, schedule: Q01DX010 (ip), vehicle: saline
[12] = dose: 125.0 mg/kg/injection, schedule: Q01DX010 (ip), vehicle: saline
[13] = dose: 16.0 mg/kg/injection, schedule: Q01DX010 (ip), vehicle: saline
[14] = dose: 0.25 mg/kg/injection, schedule: Q01DX Z (ip), vehicle: carboxymethylcellulose (CMC)
[15] = dose: 0.5 mg/kg/injection, schedule: Q01DX Z (ip), vehicle: carboxymethylcellulose (CMC)

Measured: T/C

C[C@H]1C(=O)O[C@@H]2CCN3CC=C(COC(=O)[C@](C)(O)[C@@]1(C)O)[C@H]23
inactive: dose: 3.13 mg/kg/injection, schedule: Q01DX010 (ip), vehicle: saline 115 % of control and 95 % of control | dose: 6.25 mg/kg/injection, schedule: Q01DX010 (ip), vehicle: saline 100 % of control | dose: 7.5 mg/kg/injection, schedule: Q01DX Z (ip), vehicle: carboxymethylcellulose (CMC) 106 % of control | dose: 12.5 mg/kg/injection, schedule: Q01DX010 (ip), vehicle: saline 95 % of control | dose: 15.0 mg/kg/injection, schedule: Q01DX Z (ip), vehicle: carboxymethylcellulose (CMC) 99 % of control | [1] 120 % of control and 95 % of control | dose: 30.0 mg/kg/injection, schedule: Q01DX Z (ip), vehicle: carboxymethylcellulose (CMC) 101 % of control | dose: 60.0 mg/kg/injection, schedule: Q01DX Z (ip), vehicle: carboxymethylcellulose (CMC) 106 % of control | dose: 240.0 mg/kg/injection, schedule: Q01DX Z (ip), vehicle: carboxymethylcellulose (CMC) 103 % of control
active: dose: 120.0 mg/kg/injection, schedule: Q01DX Z (ip), vehicle: carboxymethylcellulose (CMC) 153 % of control

O=c1[nH]c(=O)n(C2CC(O)C(CO)O2)cc1F (configuration not stated)
inactive: [2] 110 % of control | [3] 124 % of control | [4] 120 % of control and 104 % of control | [5] 122 % of control | [6] 110 % of control
active: [7] 155 % of control and 250 % of control | [8] 172 % of control

CCN(CC)c1ccc2cc3ccc(=[N+](CC)CC)cc-3oc2c1
inactive: dose: 0.31 mg/kg/injection, schedule: Q01DX Z (ip), vehicle: carboxymethylcellulose (CMC) 101 % of control | dose: 0.63 mg/kg/injection, schedule: Q01DX Z (ip), vehicle: carboxymethylcellulose (CMC) 98 % of control | dose: 1.25 mg/kg/injection, schedule: Q01DX Z (ip), vehicle: carboxymethylcellulose (CMC) 108 % of control | [9] 105 % of control and 114 % of control | [10] 96 % of control

CC1CCOS(=O)O1 (configuration not stated)
inactive: [9] 101 % of control | [10] 115 % of control | [4] 115 % of control | dose: 10.0 mg/kg/injection, schedule: Q01DX Z (ip), vehicle: carboxymethylcellulose (CMC) 86 % of control | [6] 110 % of control | [7] 95 % of control

S=P(N1CCOCC1)(N1CC1)N1CC1
inactive: dose: 2.5 mg/kg/injection, schedule: Q01DX010 (ip), vehicle: saline 116 % of control and 100 % of control | [2] 105 % of control and 100 % of control | [3] 93 % of control | [4] 110 % of control and 122 % of control | [6] 105 % of control

O=C1C(NC(=O)C2CCCCC2)=C(N2CC2)C(=O)C(NC(=O)C2CCCCC2)=C1N1CC1
inactive: dose: 4.7 mg/kg/injection, schedule: Q01DX Z (ip), vehicle: carboxymethylcellulose (CMC) 118 % of control | dose: 9.4 mg/kg/injection, schedule: Q01DX Z (ip), vehicle: carboxymethylcellulose (CMC) 109 % of control and 103 % of control | dose: 18.8 mg/kg/injection, schedule: Q01DX Z (ip), vehicle: carboxymethylcellulose (CMC) 117 % of control | [1] 90 % of control | dose: 37.5 mg/kg/injection, schedule: Q01DX Z (ip), vehicle: carboxymethylcellulose (CMC) 112 % of control and 117 % of control | dose: 50.0 mg/kg/injection, schedule: Q01DX010 (ip), vehicle: saline 90 % of control | dose: 75.0 mg/kg/injection, schedule: Q01DX Z (ip), vehicle: carboxymethylcellulose (CMC) 109 % of control | dose: 100.0 mg/kg/injection, schedule: Q01DX010 (ip), vehicle: saline 90 % of control | dose: 150.0 mg/kg/injection, schedule: Q01DX Z (ip), vehicle: carboxymethylcellulose (CMC) 116 % of control | dose: 300.0 mg/kg/injection, schedule: Q01DX Z (ip), vehicle: carboxymethylcellulose (CMC) 109 % of control | dose: 600.0 mg/kg/injection, schedule: Q01DX Z (ip), vehicle: carboxymethylcellulose (CMC) 88 % of control

CC(=O)[C@H]1CC[C@H]2[C@@H]3C[C@H](C)C4=CC(=O)CC[C@]4(C)[C@H]3C(=O)C[C@]12C
inactive: dose: 6.3 mg/kg/injection, schedule: Q01DX Z (sc), vehicle: steriod suspending solution 121 % of control | dose: 12.5 mg/kg/injection, schedule: Q01DX Z (sc), vehicle: steriod suspending solution 110 % of control | dose: 25.0 mg/kg/injection, schedule: Q01DX Z (sc), vehicle: steriod suspending solution 110 % of control | dose: 50.0 mg/kg/injection, schedule: Q01DX Z (sc), vehicle: steriod suspending solution 101 % of control | dose: 100.0 mg/kg/injection, schedule: Q01DX Z (sc), vehicle: steriod suspending solution 98 % of control | dose: 200.0 mg/kg/injection, schedule: Q01DX Z (sc), vehicle: steriod suspending solution 105 % of control and 94 % of control

Nc1c(Br)cc2c(c1Br)Cc1cc([N+](=O)[O-])ccc1-2
inactive: dose: 15.6 mg/kg/injection, schedule: Q01DX010 (ip), vehicle: saline 100 % of control | dose: 31.3 mg/kg/injection, schedule: Q01DX010 (ip), vehicle: saline 105 % of control | [11] 110 % of control and 100 % of control | [12] 100 % of control | dose: 250.0 mg/kg/injection, schedule: Q01DX010 (ip), vehicle: saline 100 % of control | dose: 500.0 mg/kg/injection, schedule: Q01DX010 (ip), vehicle: saline 95 % of control

c1ccc(CCSc2ncnc3nc[nH]c23)cc1
inactive: [11] 120 % of control | [12] 120 % of control

CCCCn1cnc2c(=S)nc[nH]c21
inactive: [5] 105 % of control | [13] 115 % of control | dose: 25.0 mg/kg/injection, schedule: Q01DX Z (ip), vehicle: carboxymethylcellulose (CMC) 98 % of control | [8] 114 % of control | dose: 100.0 mg/kg/injection, schedule: Q01DX Z (ip), vehicle: carboxymethylcellulose (CMC) 98 % of control | dose: 128.0 mg/kg/injection, schedule: Q01DX010 (ip), vehicle: saline 95 % of control

N#Cc1cn(C2OC(CO)C(O)C2O)c2ncnc(N)c12 (configuration not stated)
inactive: dose: 0.03 mg/kg/injection, schedule: Q01DX Z (ip), vehicle: carboxymethylcellulose (CMC) 97 % of control | dose: 0.06 mg/kg/injection, schedule: Q01DX Z (ip), vehicle: carboxymethylcellulose (CMC) 103 % of control | dose: 0.12 mg/kg/injection, schedule: Q01DX Z (ip), vehicle: carboxymethylcellulose (CMC) 103 % of control | [14] 88 % of control | [15] 94 % of control

c1ccc(CNc2ncnc3[nH]ncc23)cc1
inactive: dose: 0.98 mg/kg/injection, schedule: Q01DX Z (ip), vehicle: carboxymethylcellulose (CMC) 93 % of control | dose: 1.95 mg/kg/injection, schedule: Q01DX Z (ip), vehicle: carboxymethylcellulose (CMC) 94 % of control | dose: 3.9 mg/kg/injection, schedule: Q01DX Z (ip), vehicle: carboxymethylcellulose (CMC) 93 % of control | dose: 7.8 mg/kg/injection, schedule: Q01DX Z (ip), vehicle: carboxymethylcellulose (CMC) 112 % of control | dose: 8.0 mg/kg/injection, schedule: Q01DX010 (ip), vehicle: saline 111 % of control | [13] 111 % of control and 116 % of control | dose: 32.0 mg/kg/injection, schedule: Q01DX010 (ip), vehicle: saline 111 % of control and 122 % of control | dose: 64.0 mg/kg/injection, schedule: Q01DX010 (ip), vehicle: saline 111 % of control

Cn1cnc([N+](=O)[O-])c1Sc1nc(N)nc2nc[nH]c12
inactive: [14] 90 % of control | [15] 110 % of control | dose: 1.0 mg/kg/injection, schedule: Q01DX Z (ip), vehicle: carboxymethylcellulose (CMC) 111 % of control | dose: 2.0 mg/kg/injection, schedule: Q01DX Z (ip), vehicle: carboxymethylcellulose (CMC) 110 % of control | dose: 8.0 mg/kg/injection, schedule: Q01DX Z (ip), vehicle: carboxymethylcellulose (CMC) 86 % of control
